# From patent publication US20130203084A1, “SPECIFIC DETECTION OF HUMAN CHORIONIC GONADOTROPIN BETA SUBUNIT TYPE II PRODUCED BY TROPHOBLASTIC AND NEOPLASTIC CELLS” (Universite Paris Descartes, priority 2010, published 2013)
# Tested on: binding of 125I-HCGβ to monoclonal antibody FBT11-II
# Experiment: Competitive inhibition assay with synthetic peptides (125I-HCGβ tracer)
# Conditions: increasing concentrations of unlabeled peptide; 4° C. for 18 h; FIG. 2
# Description: Competitive inhibition assays were performed as previously described (20). Briefly, ^125I labelled HCGβ was employed as the tracer. All experiments were performed in 50 mM phosphate buffer, pH 7.5, containing 154 mM NaCl, 0.02% sodium azide, and 1% bovine serum albumin. First, we determined the dilution of FBT11-II which produced a 50% binding to ^125I-HCGβ (30,000 cpm) in the absence of peptide. Then, competitive inhibition assays were performed with the defined dilution of antibody. Displacement curves were generated in the presence of increasing concentrations of unlabeled peptides as follows: 100 μl of ^125I—HCGIβ, 100 μl of monoclonal antibody, and 50 μl of the competitive inhibitor were incubated simultaneously at 4° C. for 18 h. The antigen-antibody complex was then precipitated by adding normal human serum diluted (1:3) in phosphate buffer (100 μl) and 1 ml of 20% polyethylene glycol. After centrifugation, the pellet was counted.
# Since it was previously shown that FBT11 recognizes residues 1 through 7 and 82 through 92 of the free HCGβ subunit (20), in this study we examined whether the differences in the N-terminal sequence of HCGβ altered the recognition of FBT11-II. We performed inhibition assays with peptides spanning residues 1 through 7 to determine mAb FBT11-II specificity. We used three peptides analogous to sequences 1-7 of HCGβ encoded by type I gene (SREMLRP, SEQ ID NO: 4), 1-7 of HCGβ encoded by type II genes (SKEPLRP, SEQ ID NO: 3) and 1-7 of LHβ (SREPLRP, SEQ ID NO: 5) (FIG. 2). First, we determined the dilution of FBT11-II which produced a 50% binding to ^125I-HCGβ in the absence of peptide. Then, competitive inhibition assays were performed with the defined dilution of antibody. Displacement curves were generated in the presence of increasing concentrations of unlabeled peptides.
row,Inhibition of 125I-HCGβ binding to antibody FBT11-II (displacement of bound tracer),Substance
1,highest potency,"SKEPLRP (Synthetic 7-mer peptides corresponding to residues 1 through 7 of HCGbeta encoded by type II genes beta3, beta5 and beta8)"
2,unable to inhibit,SREMLRP (Synthetic 7-mer peptides corresponding to residues 1 through 7 of HCGbeta encoded by type I gene beta7)
3,to a lesser degree than SKEPLRP,SREPLRP (Synthetic 7-mer peptides corresponding to residues 1 through 7 of the LHbeta gene)
